Results reported in patent US12421187B2, “Dihydrofolate synthase (DHFS) inhibiting agents and methods of making and using same” (Washington Univeristy, priority 2022, dated 2025).
≈ marks a conversion by molar mass, not a printed value. Entries after “also recorded” stand apart in the source; their conditions may differ. Read-outs that look alike come from different tables or passages of the source.

Columns and labels:
E. coli ATC 25922 = assay: Agar diffusion antibacterial susceptibility assay; format: cell-based; conditions: for zone of inhibition at 3520 µg/mL / zone of inhibition at 15000 µg/mL: Escherichia coli; for zone of inhibition at 15000 µg/mL: 15 mg/mL in DMSO
Description: Inhibitor 4.10 was also used alongside sulfamethoxazole and trimethoprim and in combination with sulfamethoxazole and trimethoprim respectively, in an agar diffusion antibacterial susceptibility assay (see e.g., FIG. 41 and TABLE 11).
An overnight culture of E. coli ATC 25922 was grown in 5 mL of LB broth. 22 g of Mueller Hinton II broth powder and 15 g of agar were dissolved in 1 L of dd-H2O and autoclaved. The MH II agar broth was cooled to 47° C. and 35 mL of MH II agar broth was inoculated with 100 μL of OD600=0.1 E. coli from the overnight culture. The inoculated agar was plated and once cool enough, 10 wells were cut out using a vacuum. Each well was filled with 50 μL DMSO solutions as below and the plates were left in an incubator at 37° C. for 18 h. The zones of inhibition were measured for each well.

E. coli = assay: Whole cell antibacterial susceptibility test, bacterial growth curves in 96-well plate; format: cell-based
Description: Bacterial growth curves were determined for E. coli using two compounds—inhibitor 4.10 and trimethoprim (positive control). A 96-well plate format was used to achieve serial dilution of the test compounds and included a DMSO control to simulate the concentration of DMSO required to solubilize the test compounds in the growth medium (not shown).

[1] = target: T1, dihydropteroate synthase (DHPS) (Escherichia coli, UniProt P0AC13); assay: HPPK/DHPS/DHFR steady state kinetics with PABA or 3-HβL as DHPS substrate; format: biochemical, E. coli
T1 construct: made in house; host or cells: E. coli BL21 (given for HPPK; the other enzymes 'in the same manner')
Description: (§1) DHFR would only reduce dihydropteroic acid, not 6-hydroxymethyl-7,8-dihydropterin, and as long as the DHFR rate was not slower than the DHPS rate, then the rate limiting step of DHPS is represented by the decrease in absorbance at 340 nm overtime.
(§2) HPPK, DHPS, DHFR and all their associated cosubstrates (ATP, PABA, NADPH) were combined in suitable buffer conditions (pH=7.5) and the optical absorbance at 340 nm was measured over time (see e.g., FIG. 21A).
HPPK/DHPS/DHFR Steady State Kinetics
Stock solutions of all reagents were made using 100 mM Tris buffer (pH=7.5) and stored in fractions in a −80° C. freezer until use (see e.g., TABLE 5).
An assay stock solution containing everything except the enzymes was made and 142.5 μL was distributed to each well (6 total) on a quartz 96-well plate that had been flushed with argon. To each of the first three wells was then added 7.5 μL of the enzyme solution containing HPPK/DHPS/DHFR, and to each of the last 3 wells was added 7.5 μL of 100 mM Tris-buffer. The 96-well plate was put into a UV/Vis plate reader and incubated at 37° C. while the optical absorbance at nm was read every 10 s for 1 h. The apparent reaction rate for absorbance decrease was measured from between 0-5 min. Each well was combined with their triplicate partners and the solutions were centrifuge filtered through a molecular weight cutoff (MWCO) to remove any enzymes. The solutions then run on an LCMS with single ion monitoring methods to detect the various oxidation states of products.
HPPK/DHPS/DHFR Steady State Kinetics with a 3-HG3L as a Substrate Stock solutions of all reagents were made using 100 mM Tris buffer (pH=7.5) and stored in fractions in a −80° C. freezer until use (see e.g., TABLE 7).
An assay stock solution containing everything except the enzymes was made and 142.5 μL was distributed to each well (6 total) on a quartz 96-well plate that had been flushed with argon. To each of the first three wells was then added 7.5 μL of the enzyme solution containing HPPK/DHPS/DHFR, and to each of the last 3 wells was added 7.5 μL of 100 mM Tris-buffer. The 96-well plate was put into a UV/Vis plate reader and incubated at 37° C. while the optical absorbance at nm was read every 10 s for 1 h. The apparent reaction rate for absorbance decrease was measured from between 0-5 min. Each well was combined with 1-0 their triplicate partners and the solutions were centrifuge filtered through a molecular weight cutoff (MWCO) to remove any enzymes. The solutions then run on an LCMS with single ion monitoring methods to detect the various oxidation states of products.

[2] = target: T1, dihydropteroate synthase (DHPS); assay: HPPK/DHPS/DHFR steady state kinetics inhibition assay (NADPH consumption, absorbance at 340 nm); format: biochemical, E. coli
Description: as §1, §2
HPPK/DHPS/DHFR Steady State Kinetics Inhibition
Stock solutions of all reagents were made using 100 mM Tris-buffer (pH=7.5) and stored in fractions in a −80° C. freezer until use (see e.g., TABLE 6).
An assay stock solution containing everything except the HPPK/DHPS/DHFR solution and the Tris buffer+Inhibitor was made and 88.5 μL was distributed to each well (in triplicate) of a quartz 96-well plate to be used. […] 7.5 μL of the enzyme solution containing HPPK/DHPS/DHFR was added to each well and the plate was put into a UV/Vis plate reader and incubated at 37° C. while the optical absorbance at 340 nm was read every 10 s for 1 h. The apparent reaction 1-9 rate for absorbance decrease was measured from between 0-5 min.

[3] = target: T2, dihydrofolate synthetase (DHFS) (Escherichia coli, UniProt P08192); assay: DHFS steady state kinetics inhibition assay (PK/LDH coupled, absorbance at 340 nm, LCMS of product); format: biochemical, E. coli; conditions: for DHFS product detected by LCMS of the reaction mixtures: higher inhibitor concentrations, FIG. 38A-38B
T2 construct: made in house; host or cells: E. coli BL21 (given for HPPK; the other enzymes 'in the same manner')
Description: With a suitable DHFS substrate in hand (THFA), conditions to measure the rate of DHFS action were investigated. […] Given none of the substrates or cofactors of DHFS (see e.g., FIG. 19) would be suitable for absorbance change detection, a coupled enzyme reaction with pyruvate kinase/lactate dehydrogenase (PK/LDH) was chosen. In the presence of ADP (in this case produced by DHFS), PK would convert phosphoenolpyruvate (PEP) to pyruvate, reforming ATP in the process (see e.g., FIG. 20A). The pyruvate would then be reduced by LDH in a NADH dependent manner (see e.g., FIG. 20B). The oxidation of NADH to NAD^+ would cause a decrease in absorbance at 340 nm, which can be measured as a rate of DHFS activity as long as the PK/LDH process was not the rate limiting step of the pathway from THFA to NAD^+.
THFA and its associated cofactors (L-Glu, ATP) were dissolved in degassed buffer solution (pH=7.5) to reconstitute DHFS activity with coupling to PK/LDH activity in the presence of excess cosubstrates (PEP, NADH) (see e.g., FIG. 24A). The optical absorbance at 340 nm was measured over time and a steady-state approximation of DHFS rate (7.18 E-5 abs/s) was determined (see e.g., FIG. 24B). Once the reaction had progressed for 20 minutes, 1 M HCl was added to quench the reaction and KCl+MeOH was added to agglutinate the protein and solubilize the pterin-containing metabolites. The vials were heated for 1 h at 70° C. and centrifuged to remove precipitated enzymes. The supernatant solution was spiked with a fixed concentration of Fmoc-alanine as an internal standard for LCMS analysis.
DHFS Steady State Kinetics Inhibition Assay
Stock solutions of all reagents were made using 100 mM Tris-buffer (pH=7.5) an stored in fractions in a −80° C. freezer until use. 1500 μL of a stock solution containing everything (in appropriate amounts to maintain the final concentration calculations for 150 total μL well volume) in the table above except the DHFS and the Tris Buffer+inhibitor was made. Solutions of the Tris Buffer+inhibitor were made so as to achieve final inhibitor concentrations as below. The final concentrations of inhibitor can be adjusted as necessary.
Each necessary well of a quartz 96-well plate was flushed with argon then filled (in triplicate) with 69.75 μL of stock solution and 75.75 μL of Tris Buffer+Inhibitor solution. The quartz plate was incubated at 37° C. for 10 minutes then 4.5 μL of DHFS stock solution was quickly added to each well except well 6, to which 4.5 μL of Tris-buffer was added. The quartz plate was put in a plate reader at 37° C. and the optical absorbance at 340 nm was read every 10 seconds for 20 min. The apparent reaction rate for absorbance decrease was measured from between 0-5 min. Each well was combined with their triplicate partners and the solutions were centrifuge filtered through a molecular weight cutoff (MWCO) to remove any enzymes. The solutions were spiked with enough Fmoc-ala to bring the final concentration to 50 μM (moc-ala then run on an LCMS with single ion monitoring methods to detect the various oxidation states of THEA and Glu-THFA.
An alternative method is as follows: After the 20-minute optical absorbance reading, the triplicate solutions were combined then diluted with 200 μL MeOH and an amount of KCl in H2O to bring the final concentration of KCl to 20 mM. The solutions were then incubated at 70° C. for 1 h. […]

DHFS = target: T3, DHFS (Escherichia coli, UniProt P08192); assay: Protein mass spectrometry of DHFS incubated with inhibitor (covalent adduct search); parameters: species or system E. coli; conditions: 0, 40, 400 μM inhibitor, 20 μM DHFS, 37° C., 1 hour
T3 construct: made in house; host or cells: E. coli BL21 (given for HPPK; the other enzymes 'in the same manner')
Description: If DHFS is indeed phosphorylating the 3-hydroxyl group of the 3-HβL warhead, then why was it not detected by LCMS analysis? The possibility was considered that the higher concentrations of compound 4.10 resulting in 100% DHFS inhibition might be consistent with covalent modification of the enzyme by the inhibitor. This could happen by a variety of different mechanisms including the canonical β-lactam suicide inhibition mechanism through acylation of nucleophilic amino acid side chains. However, there is a potentially novel mechanism at play when considering the reactivity of an activated benzylic position of para-aniline derivatives. The presence of a leaving group at the benzylic position of para-anilines results in the formation of reactive quinone-imine-methide species. If the 3-hydroxy group of inhibitor 4.10 is phosphorylated in the DHFS active site, it could serve as a leaving group leading to spontaneous formation of a quinone-imine-methide that might react with nearby amino acid side chains. This transformation could also take place within the mass spec, making detection of the phosphorylated inhibitor impossible (see e.g., FIG. 39). […] The LCMS samples were also analyzed for the presence of a reaction product between the 3-HβL and L-Glu, but no masses which could match this description were found. […]

[4] = ATC25922, 3.52 mg/mL in DMSO, 50 μL per well, 37° C., 18 h, read-out: Zone of Inhibition
[5] = ATC25922, 50 μL per well, 37° C., 18 h

T2 sequence (P08192 whole entry): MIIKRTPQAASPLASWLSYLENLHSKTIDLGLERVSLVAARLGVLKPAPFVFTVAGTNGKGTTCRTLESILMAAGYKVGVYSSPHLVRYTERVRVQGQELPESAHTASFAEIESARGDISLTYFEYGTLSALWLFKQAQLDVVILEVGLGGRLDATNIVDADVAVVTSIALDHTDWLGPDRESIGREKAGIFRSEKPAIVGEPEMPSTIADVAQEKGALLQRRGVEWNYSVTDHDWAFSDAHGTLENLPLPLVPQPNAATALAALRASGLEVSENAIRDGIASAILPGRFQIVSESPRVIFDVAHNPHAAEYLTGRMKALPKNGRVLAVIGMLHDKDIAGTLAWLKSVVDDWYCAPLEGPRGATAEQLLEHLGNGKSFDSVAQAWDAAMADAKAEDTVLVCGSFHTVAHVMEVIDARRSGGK
T1 sequence (P0AC13 whole entry): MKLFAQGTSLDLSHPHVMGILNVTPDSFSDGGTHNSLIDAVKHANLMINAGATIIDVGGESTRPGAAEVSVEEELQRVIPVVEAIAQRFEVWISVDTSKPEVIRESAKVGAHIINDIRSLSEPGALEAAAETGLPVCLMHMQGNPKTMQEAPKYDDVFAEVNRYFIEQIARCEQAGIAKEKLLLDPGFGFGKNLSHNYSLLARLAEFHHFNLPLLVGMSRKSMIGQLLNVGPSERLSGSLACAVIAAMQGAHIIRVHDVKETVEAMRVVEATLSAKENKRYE
T3 sequence (P08192 whole entry): as the sequence (P08192 whole entry) above

COc1cc(Cc2cnc(N)nc2N)cc(OC)c1OC [trimethoprim]
Bacterial growth inhibition in agar diffusion (in words) (E. coli ATC 25922; E. coli): clear zones of bacterial growth inhibition | zone of inhibition at 3520 µg/mL (E. coli ATC 25922; [4]): 39.6 mm | zone of inhibition at 15000 µg/mL (E. coli ATC 25922; [5]): 45.3 mm | MIC (E. coli; Escherichia coli, read-out: MIC (minimum inhibitory concentration)): 2 µM (≈ 0.581 µg/mL)

Nc1ccc(C2(O)CNC2=O)cc1 (stereo not shown) [Compound 2.44, 3-(4-aminophenyl)-3-hydroxyazetidin-2-one]
Substrate of DHPS, rate as substrate (in words) [1]: substrate of DHPS | Substrate of DHPS, rate as substrate (in words) ([1]; listed as 3-(para-NH2-phenyl)-3-HβL): substrate | Substrate of DHPS, rate as substrate (in words) ([1]; listed as BVD-3-7): slower | Inhibition of DHPS (in words) [2]: not an inhibitor of DHPS

Cc1cc(NS(=O)(=O)c2ccc(N)cc2)no1 [sulfamethoxazole]
Bacterial growth inhibition in agar diffusion (in words) (E. coli ATC 25922; E. coli): clear zones of bacterial growth inhibition | zone of inhibition at 3520 µg/mL (E. coli ATC 25922; [4]): 23.2 mm | zone of inhibition at 15000 µg/mL (E. coli ATC 25922; [5]): 25.9 mm

Nc1ccc(C(=O)O)cc1 [PABA, p-amino-benzoic acid, reference compound]
Substrate of DHPS, rate as substrate (in words) [1]: faster

NCC(O)(C(=O)O)c1ccc(NCc2cnc3nc(N)nc(N)c3n2)cc1 (stereo not shown) [Compound 4.12, 3-amino-2-(4-(((2,4-diaminopteridin-6-yl)methyl)amino)phenyl)-2-hydroxypropanoic acid]
DHFS product detected by LCMS of the reaction mixtures [3]: still showed some product

Nc1nc(N)c2nc(CNc3ccc(C4(O)CNC4=O)cc3)cnc2n1 (stereo not shown) [Compound 4.10, 3-(4-(((2,4-diaminopteridin-6-yl)methyl)amino)phenyl)-3-hydroxyazetidin-2-one]
Bacterial growth inhibition in agar diffusion (in words) (E. coli ATC 25922; E. coli): no bacterial growth inhibition was observed; also recorded: no apparent effect on E. coli growth | Synergistic effect in combination with sulfamethoxazole or trimethoprim (in words) (E. coli ATC 25922; E. coli): No apparent synergistic effect | zone of inhibition at 3520 µg/mL (E. coli ATC 25922; ATC25922, 18 h): 0 mm | 3-HβL-DHFS covalent adducts by protein mass spectrometry (in words) (DHFS): no apparent peaks corresponding to DHFS+334 mass units; also recorded: no 3-HβL—DHFS adducts formed | Inhibition of bacterial growth (in words) (E. coli; serial dilution, compared with DMSO control): No significant inhibition of bacterial growth | Dose-dependent inhibition of DHFS (in words) [3]: dose-dependent inhibitory response | DHFS rate inhibition ([3]; at higher (double digit micromolar) concentrations): ~100% | DHFS product detected by LCMS of the reaction mixtures [3]: no product detected

Nc1ncc(CNc2ccc(C3(O)CNC3=O)cc2)c(N)n1 (stereo not shown) [Compound 4.6, 3-(4-(((2,4-diaminopyrimidin-5-yl)methyl)amino)phenyl)-3-hydroxyazetidin-2-one]
Dose-dependent inhibition of DHFS (in words) [3]: no apparent dose dependent inhibition of DHFS
